In US9382228B2 (priority 2013, dated 2016):

How the values were obtained:
[1] = test system: phospho-FMS in THP-1 cells; experiment: cells; conditions: Homo sapiens, THP-1, read-out: pFMS inhibition in THP-1 cells
[2] = target: unphosphorylated PDGFRβ kinase (uPDGFRβ, Seq. ID No. 3) (Homo sapiens, UniProt P09619); experiment: biochemical
[3] = test system: M-NFS-60 cells; experiment: cells; conditions: 67 h, read-out: M-NFS-60 cell proliferation
Protocol: M-NFS-6 Cell Proliferation Assay
A serial dilution of test compound was dispensed into a 384-well black clear bottom plate (Corning, Corning, N.Y.). Two thousand five hundred cells were added per well in 50 μL complete growth medium. […] IC50 values were calculated from a series of percent inhibition values determined at a range of inhibitor concentrations using software routines as implemented in the GraphPad Prism software package.

[4] = target: T1, unphosphorylated c-FMS kinase (uFMS, Seq. ID no. 1) (Homo sapiens, UniProt P07333); experiment: biochemical
T1 sequence (P07333 538-972): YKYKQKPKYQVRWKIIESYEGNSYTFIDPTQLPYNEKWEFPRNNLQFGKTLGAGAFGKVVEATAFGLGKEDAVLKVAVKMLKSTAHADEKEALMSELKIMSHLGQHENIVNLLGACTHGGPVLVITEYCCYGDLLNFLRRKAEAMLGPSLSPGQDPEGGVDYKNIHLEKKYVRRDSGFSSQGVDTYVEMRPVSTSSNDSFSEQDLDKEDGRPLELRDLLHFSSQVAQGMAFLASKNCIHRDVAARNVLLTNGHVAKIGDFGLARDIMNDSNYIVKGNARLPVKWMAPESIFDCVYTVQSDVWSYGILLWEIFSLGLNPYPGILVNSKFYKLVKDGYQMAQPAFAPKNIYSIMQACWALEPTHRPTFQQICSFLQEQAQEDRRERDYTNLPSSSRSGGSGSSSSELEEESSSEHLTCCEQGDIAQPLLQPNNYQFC
Protocol: In this assay, the oxidation of NADH (thus the decrease at A340 nm) was continuously monitored spectrophometrically. The reaction mixture (100 μL) contained FMS (purchased from Millipore) (10 nM), polyE4Y (1 mg/mL), MgCl2 (10 mM), pyruvate kinase (4 units), lactate dehydrogenase (0.7 units), phosphoenol pyruvate (1 mM), NADH (0.28 mM) and ATP (500 μM) in 90 mM Tris buffer containing 0.2% octyl-glucoside and 1% DMSO, pH 7.5. The inhibition reaction was started by mixing serial diluted test compound with the above reaction mixture. The absorption at 340 nm was monitored continuously for 4 hours at 30° C. on Synergy 2 plate reader. The reaction rate was calculated using the 3 to 4 h time frame. Percent inhibition was obtained by comparison of reaction rate with that of a control (i.e. in the absence of test compound). IC50 values were calculated from a series of percent inhibition values determined at a range of inhibitor concentrations using software routines as implemented in the GraphPad Prism software package.

[5] = test system: osteoclast precursors; experiment: cells; assay type: cell-based; conditions: read-out: Osteoclast assay
[6] = target: unphosphorylated c-KIT kinase (uKIT, Seq. ID no. 2) (Homo sapiens, UniProt P10721); experiment: biochemical
Protocol: uKit kinase (Seq. ID No. 2) Assay
In this assay, the oxidation of NADH (thus the decrease at A340 nm) was continuously monitored spectrophometrically. […] The inhibition reaction was started by mixing serial diluted test compound with the above reaction mixture. The absorption at 340 nm was monitored continuously for 4 hours at 30° C. on Synergy 2 plate reader (BioTech).

[7] = uPDGFRb, enzymatic assay, ATP 500 μM
[8] = uFMS, enzymatic assay, ATP 500 μM
[9] = uKIT, enzymatic assay, ATP 2000 μM

unphosphorylated c-KIT kinase (uKIT, Seq. ID no. 2), sequence (P10721 with tags, fused parts or gaps): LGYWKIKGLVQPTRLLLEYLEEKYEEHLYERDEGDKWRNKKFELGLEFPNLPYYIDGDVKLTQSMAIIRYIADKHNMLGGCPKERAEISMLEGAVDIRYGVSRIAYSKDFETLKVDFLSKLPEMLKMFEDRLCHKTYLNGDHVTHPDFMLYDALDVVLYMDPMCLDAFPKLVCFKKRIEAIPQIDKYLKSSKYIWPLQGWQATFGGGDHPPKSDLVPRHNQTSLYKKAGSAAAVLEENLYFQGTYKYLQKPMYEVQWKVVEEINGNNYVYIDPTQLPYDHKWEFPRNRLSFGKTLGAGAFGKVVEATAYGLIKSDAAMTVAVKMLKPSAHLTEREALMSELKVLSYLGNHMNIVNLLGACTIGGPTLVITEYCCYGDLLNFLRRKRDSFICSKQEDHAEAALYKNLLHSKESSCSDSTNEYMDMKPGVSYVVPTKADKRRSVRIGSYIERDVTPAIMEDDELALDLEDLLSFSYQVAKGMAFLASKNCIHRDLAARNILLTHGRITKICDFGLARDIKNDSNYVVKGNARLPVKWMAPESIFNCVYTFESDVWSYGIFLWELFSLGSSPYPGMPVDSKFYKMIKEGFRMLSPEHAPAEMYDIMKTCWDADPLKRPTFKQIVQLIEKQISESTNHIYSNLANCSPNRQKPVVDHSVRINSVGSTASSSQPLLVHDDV
unphosphorylated PDGFRβ kinase (uPDGFRβ, Seq. ID No. 3), sequence (P09619 557-1106): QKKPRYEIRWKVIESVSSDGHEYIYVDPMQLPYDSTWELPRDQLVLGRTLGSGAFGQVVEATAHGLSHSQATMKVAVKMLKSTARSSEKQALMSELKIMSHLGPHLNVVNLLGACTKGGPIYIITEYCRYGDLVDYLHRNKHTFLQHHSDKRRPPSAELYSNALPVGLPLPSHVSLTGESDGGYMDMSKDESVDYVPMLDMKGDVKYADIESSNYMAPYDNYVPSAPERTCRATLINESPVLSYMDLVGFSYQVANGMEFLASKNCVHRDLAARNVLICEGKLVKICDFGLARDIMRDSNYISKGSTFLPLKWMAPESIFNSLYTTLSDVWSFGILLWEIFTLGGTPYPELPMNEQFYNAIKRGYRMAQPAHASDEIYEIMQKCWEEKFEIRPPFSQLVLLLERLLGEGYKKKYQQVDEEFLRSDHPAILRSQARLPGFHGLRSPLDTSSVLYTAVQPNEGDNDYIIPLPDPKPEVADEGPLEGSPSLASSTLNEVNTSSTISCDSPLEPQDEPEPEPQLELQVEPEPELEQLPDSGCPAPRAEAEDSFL

Cn1cc(-c2cc(Oc3ccc(NC(=O)NC(=O)[C@H]4C[C@](C)(F)C4)nc3)ccn2)cn1 [Example 1, trans-3-fluoro-3-methyl-N-((5-((2-(1-methyl-1H-pyrazol-4-yl)pyridin-4-yl)oxy)pyridin-2-yl)carbamoyl)cyclobutanecarboxamide]
IC50 [1]: < 0.01 µM | IC50 [2, 7]: 10 to 100 nM | IC50 [3]: < 0.01 µM | IC50 [4, 8]: < 10 nM | IC50 [5]: < 0.01 µM

Cn1cc(-c2cc(Oc3ccc(NC(=O)NC(=O)C4CC(C)(C)C4)nc3)ccn2)cn1 [Example 2, 3,3-dimethyl-N-((5-((2-(1-methyl-1H-pyrazol-4-yl)pyridin-4-yl)oxy)pyridin-2-yl)carbamoyl)cyclobutanecarboxamide]
IC50 [6, 9]: < 10 nM | IC50 [1]: < 0.01 µM | IC50 [2, 7]: 10 to 100 nM | IC50 [3]: < 0.01 µM | IC50 [4, 8]: < 10 nM | IC50 [5]: < 0.01 µM

Cn1cc(-c2cc(Oc3ccc(NC(=O)NC(=O)CCC4(C(F)(F)F)CC4)nc3)ccn2)cn1 [Example 3, N-((5-((2-(1-methyl-1H-pyrazol-4-yl)pyridin-4-yl)oxy)pyridin-2-yl)carbamoyl)-3-(1-(trifluoromethyl)cyclopropyl)propanamide]
IC50 [6, 9]: < 10 nM | IC50 [1]: < 0.01 µM | IC50 [2, 7]: < 10 nM | IC50 [3]: < 0.01 µM | IC50 [4, 8]: < 10 nM | IC50 [5]: < 0.01 µM

Cn1cc(-c2cc(Oc3ccc(NC(=O)NC(=O)CC4CCOCC4)nc3)ccn2)cn1 [Example 4, N-((5-((2-(1-methyl-1H-pyrazol-4-yl)pyridin-4-yl)oxy)pyridin-2-yl)carbamoyl)-2-(tetrahydro-2H-pyran-4-yl)acetamide]
IC50 ([6]; IC50 (nM) uKIT, Table 3): 165 nM | IC50 [6, 9]: 100 to 1000 nM | IC50 [1]: 0.01 to 0.1 µM | IC50 ([2]; IC50 (nM) uPDGFRβ, Table 3): 168 nM | IC50 [2, 7]: 100 to 1000 nM | IC50 [3]: < 0.01 µM | IC50 ([4]; IC50 (nM) uFMS, Table 3): 8 nM | IC50 [4, 8]: < 10 nM | IC50 [5]: < 0.01 µM

Cc1nc(NC(=O)NC(=O)CCC2(C(F)(F)F)CC2)ccc1Oc1ccnc(-c2cnn(C)c2)c1 [Example 11, N-((6-methyl-5-((2-(1-methyl-1H-pyrazol-4-yl)pyridin-4-yl)oxy)pyridin-2-yl)carbamoyl)-3-(1-(trifluoromethyl)cyclopropyl)propanamide]
IC50 [6, 9]: < 10 nM | IC50 [1]: 0.01 to 0.1 µM | IC50 [2, 7]: 10 to 100 nM | IC50 [3]: < 0.01 µM | IC50 [4, 8]: < 10 nM | IC50 [5]: < 0.01 µM

Cc1nc(NC(=O)NC(=O)C2CCC(F)(F)CC2)ccc1Oc1ccnc(-c2cnn(C)c2)c1 [Example 12, 4,4-difluoro-N-((6-methyl-5-((2-(1-methyl-1H-pyrazol-4-yl)pyridin-4-yl)oxy)pyridin-2-yl)carbamoyl)cyclohexanecarboxamide]
IC50 [6, 9]: 10 to 100 nM | IC50 [1]: 0.01 to 0.1 µM | IC50 [2, 7]: 100 to 1000 nM | IC50 [3]: < 0.01 µM | IC50 [4, 8]: < 10 nM | IC50 [5]: < 0.01 µM

Cc1nc(NC(=O)NC(=O)C2CC(C)(C)C2)ccc1Oc1ccnc(-c2cnn(C)c2)c1 [Example 13, 3,3-dimethyl-N-((6-methyl-5-((2-(1-methyl-1H-pyrazol-4-yl)pyridin-4-yl)oxy)pyridin-2-yl)carbamoyl)cyclobutanecarboxamide]
IC50 [6, 9]: < 10 nM | IC50 [1]: < 0.01 µM | IC50 [2, 7]: 10 to 100 nM | IC50 [3]: < 0.01 µM | IC50 [4, 8]: < 10 nM | IC50 [5]: < 0.01 µM

Cn1cc(-c2cc(Oc3ccc(NC(=O)NC(=O)C(C)(C)C)nc3)ccn2)cn1 [Example 26, N-((5-((2-(1-methyl-1H-pyrazol-4-yl)pyridin-4-yl)oxy)pyridin-2-yl)carbamoyl)pivalamide]
IC50 [6, 9]: 100 to 1000 nM | IC50 [1]: 0.01 to 0.1 µM | IC50 [2, 7]: 100 to 1000 nM | IC50 [3]: < 0.01 µM | IC50 [4, 8]: < 10 nM | IC50 [5]: < 0.01 µM

Cn1cc(-c2cc(Oc3ccc(NC(=O)NC(=O)C4CC5(CCC5)C4)nc3)ccn2)cn1 [Example 31, N-((5-((2-(1-methyl-1H-pyrazol-4-yl)pyridin-4-yl)oxy)pyridin-2-yl)carbamoyl)spiro[3.3]heptane-2-carboxamide]
IC50 [6, 9]: < 10 nM | IC50 [1]: 0.01 to 0.1 µM | IC50 [2, 7]: < 10 nM | IC50 [3]: < 0.01 µM | IC50 [4, 8]: < 10 nM | IC50 [5]: < 0.01 µM

Cc1nc(NC(=O)NC(=O)C2CC3(CCC3)C2)ccc1Oc1ccnc(-c2cnn(C)c2)c1 [Example 32, N-((6-methyl-5-((2-(1-methyl-1H-pyrazol-4-yl)pyridin-4-yl)oxy)pyridin-2-yl)carbamoyl)spiro[3.3]heptane-2-carboxamide]
IC50 [6, 9]: < 10 nM | IC50 [1]: < 0.01 µM | IC50 [2, 7]: 10 to 100 nM | IC50 [3]: 0.01 to 0.1 µM | IC50 [4, 8]: < 10 nM | IC50 [5]: < 0.01 µM

Cn1cc(-c2cc(Oc3ccc(NC(=O)NC(=O)C4(C(F)(F)F)CC4)nc3)ccn2)cn1 [Example 33, N-((5-((2-(1-methyl-1H-pyrazol-4-yl)pyridin-4-yl)oxy)pyridin-2-yl)carbamoyl)-1-(trifluoromethyl)cyclopropanecarboxamide]
IC50 [6, 9]: 100 to 1000 nM | IC50 [1]: 0.01 to 0.1 µM | IC50 [2, 7]: 10 to 100 nM | IC50 [3]: 0.01 to 0.1 µM | IC50 [4, 8]: < 10 nM | IC50 [5]: < 0.01 µM

Cc1nc(NC(=O)NC(=O)C2(C(F)(F)F)CC2)ccc1Oc1ccnc(-c2cnn(C)c2)c1 [Example 34, N-((6-methyl-5-((2-(1-methyl-1H-pyrazol-4-yl)pyridin-4-yl)oxy)pyridin-2-yl)carbamoyl)-1-(trifluoromethyl)cyclopropanecarboxamide]
IC50 [6, 9]: 100 to 1000 nM | IC50 [1]: 0.01 to 0.1 µM | IC50 [2, 7]: 100 to 1000 nM | IC50 [3]: 0.01 to 0.1 µM | IC50 [4, 8]: < 10 nM | IC50 [5]: < 0.01 µM

Cn1cc(-c2cc(Oc3ccc(NC(=O)NC(=O)C(C)(C)C(F)(F)F)nc3)ccn2)cn1 [Example 35, 3,3,3-trifluoro-2,2-dimethyl-N-((5-((2-(1-methyl-1H-pyrazol-4-yl)pyridin-4-yl)oxy)pyridin-2-yl)carbamoyl)propanamide]
IC50 [6, 9]: 100 to 1000 nM | IC50 [1]: 0.01 to 0.1 µM | IC50 [2, 7]: 10 to 100 nM | IC50 [3]: 0.01 to 0.1 µM | IC50 [4, 8]: < 10 nM | IC50 [5]: 0.01 to 0.1 µM

Cc1nc(NC(=O)NC(=O)C(C)(C)C(F)(F)F)ccc1Oc1ccnc(-c2cnn(C)c2)c1 [Example 36, 3,3,3-trifluoro-2,2-dimethyl-N-((6-methyl-5-((2-(1-methyl-1H-pyrazol-4-yl)pyridin-4-yl)oxy)pyridin-2-yl)carbamoyl)propanamide]
IC50 [6, 9]: 100 to 1000 nM | IC50 [1]: 0.01 to 0.1 µM | IC50 [2, 7]: 100 to 1000 nM | IC50 [3]: 0.01 to 0.1 µM | IC50 [4, 8]: < 10 nM | IC50 [5]: 0.01 to 0.1 µM

Cc1ccc(-c2cc(Oc3ccc(NC(=O)NC(=O)C(C)(C)C)nc3C)ccn2)cn1 [Example 39, N-((6-methyl-5-((6′-methyl-[2,3′-bipyridin]-4-yl)oxy)pyridin-2-yl)carbamoyl)pivalamide]
IC50 [1]: 0.01 to 0.1 µM | IC50 [5]: 0.01 to 0.1 µM

Cc1nc(NC(=O)NC(=O)CC(C)(C)C(F)(F)F)ccc1Oc1ccnc(-c2cnn(C)c2)c1 [Example 47, 4,4,4-trifluoro-3,3-dimethyl-N-((6-methyl-5-((2-(1-methyl-1H-pyrazol-4-yl)pyridin-4-yl)oxy)pyridin-2-yl)carbamoyl)butanamide]
IC50 [1]: 0.01 to 0.1 µM | IC50 [5]: 0.01 to 0.1 µM

Cn1cc(-c2cc(Oc3ccc(NC(=O)NC(=O)CC(C)(C)C(F)(F)F)nc3)ccn2)cn1 [Example 48, 4,4,4-trifluoro-3,3-dimethyl-N-((5-((2-(1-methyl-1H-pyrazol-4-yl)pyridin-4-yl)oxy)pyridin-2-yl)carbamoyl)butanamide]
IC50 [6, 9]: < 10 nM | IC50 [1]: < 0.01 µM | IC50 [3]: 0.01 to 0.1 µM | IC50 [4, 8]: < 10 nM | IC50 [5]: 0.01 to 0.1 µM

Cn1cc(-c2cc(Oc3ccc(NC(=O)NC(=O)C4(C)CC4)nc3)ccn2)cn1 [Example 52, 1-methyl-N-((5-((2-(1-methyl-1H-pyrazol-4-yl)pyridin-4-yl)oxy)pyridin-2-yl)carbamoyl)cyclopropanecarboxamide]
IC50 [6, 9]: 100 to 1000 nM | IC50 [1]: < 0.01 µM | IC50 [2, 7]: > 1000 nM | IC50 [5]: < 0.01 µM

COC(C)(C)C(=O)NC(=O)Nc1ccc(Oc2ccnc(-c3cnn(C)c3)c2)cn1 [Example 55, 2-methoxy-2-methyl-N-((5-((2-(1-methyl-1H-pyrazol-4-yl)pyridin-4-yl)oxy)pyridin-2-yl)carbamoyl)propanamide]
IC50 [1]: 0.01 to 0.1 µM | IC50 [5]: < 0.01 µM

Cc1cc(-c2cc(Oc3ccc(NC(=O)NC(=O)C(C)(C)C)nc3C)ccn2)ccn1 [Example 56, N-((6-methyl-5-((2′-methyl-[2,4′-bipyridin]-4-yl)oxy)pyridin-2-yl)carbamoyl)pivalamide]
IC50 ([6]; IC50 (nM) uKIT, Table 3): 3100 nM | IC50 [6, 9]: > 1000 nM | IC50 [1]: < 0.01 µM | IC50 ([2]; IC50 (nM) uPDGFRβ, Table 3): 2800 nM | IC50 [2, 7]: > 1000 nM | IC50 [5]: 0.01 to 0.1 µM

Cc1cc(-c2cc(Oc3ccc(NC(=O)NC(=O)C(C)(C)C)nc3C)ccn2)on1 [Example 76, N-((6-methyl-5-((2-(3-methylisoxazol-5-yl)pyridin-4-yl)oxy)pyridin-2-yl)carbamoyl)pivalamide]
IC50 [6, 9]: > 1000 nM | IC50 [1]: < 0.01 µM | IC50 [2, 7]: > 1000 nM | IC50 [5]: 0.01 to 0.1 µM

Cc1cc(-c2cc(Oc3ccc(NC(=O)NC(=O)C(C)C)nc3C)ccn2)ccn1 [Example 79, N-((6-methyl-5-((2′-methyl-[2,4′-bipyridin]-4-yl)oxy)pyridin-2-yl)carbamoyl)isobutyramide]
IC50 [1]: < 0.01 µM | IC50 [5]: < 0.01 µM
